This note sets out measurements from ChEMBL document CHEMBL6127038, “How many organic small molecules might be used to treat COVID-19? From natural products to synthetic agents” (Eur J Med Chem, 2024).

Test [1] relates to SARS-CoV-2. The experiment in a line: Antiviral activity against SARS-CoV-2 infected in human Calu-3 cells assessed as reduction in viral growth measured after 48 hrs by qRT-PCR analysis. Format: functional, organism-based. As to conditions: Severe acute respiratory syndrome coronavirus 2, Calu-3, 48 h. (In general: Real-time PCR tracks product formation cycle by cycle.)
Test [2] relates to SARS-CoV-2. The test is described as follows: Anti-viral activity against SARS-CoV-2 infected in human A549 cells expressing hACE2 by firefly reporter assay. In kind it is functional, organism-based. The note with it: Severe acute respiratory syndrome coronavirus 2, A549. A general note: A reporter such as luciferase makes a cellular process visible.
Test [3] concerns the target Procathepsin L (Homo sapiens, UniProt P07711). The experiment in a line: Inhibition of cathepsin L (unknown origin).
The test system of test [4] is SARS-CoV-2. The test is described as follows: Antiviral activity against SARS-CoV-2 infected in human HPAEpiC cells assessed as reduction in viral growth. The note with it: Severe acute respiratory syndrome coronavirus 2, HPAEpiC. In kind it is functional, organism-based.
Test [5] addresses T1, Replicase polyprotein 1ab (Severe acute respiratory syndrome coronavirus 2, UniProt P0DTD1). The test is described as follows: Inhibition of SARS-CoV-2 3CLPro.
Test [6] concerns the target Replicase polyprotein 1ab (Human coronavirus 229E, UniProt P0C6X1). The test is described as follows: Inhibition of HCov-229E 3CLpro by FRET assay.
In test [7] the target is T1, Replicase polyprotein 1ab. The experiment in a line: Inhibition of SARS-CoV-2 RdRp.
The test system of test [8] is SARS-CoV-2. The test is described as follows: Antiviral activity against wild type SARS-CoV-2 Omicron BA.5 infected in HEK293T cells assessed as reduction in viral replication measured after 48 hrs by Nano-Glo luciferase assay. In kind it is functional, organism-based. As to conditions: Severe acute respiratory syndrome coronavirus 2, HEK-293T.
In test [9] the test system is SARS-CoV-2. The experiment in a line: Antiviral activity against wild type SARS-CoV-2 Omicron BA.1 infected in HEK293T cells assessed as reduction in viral replication measured after 48 hrs by Nano-Glo luciferase assay. In kind it is functional, organism-based. As to conditions: Severe acute respiratory syndrome coronavirus 2, Omicron BA.1, HEK-293T.
Test [10] can be described thus: Inhibition of DENV-2 NS2B/NS3 protease. Also on record: species or system dengue virus type 2.

Chain of Replicase polyprotein 1ab (Human coronavirus 229E, UniProt P0C6X1) (P0C6X1 2966-3267 limits assumed): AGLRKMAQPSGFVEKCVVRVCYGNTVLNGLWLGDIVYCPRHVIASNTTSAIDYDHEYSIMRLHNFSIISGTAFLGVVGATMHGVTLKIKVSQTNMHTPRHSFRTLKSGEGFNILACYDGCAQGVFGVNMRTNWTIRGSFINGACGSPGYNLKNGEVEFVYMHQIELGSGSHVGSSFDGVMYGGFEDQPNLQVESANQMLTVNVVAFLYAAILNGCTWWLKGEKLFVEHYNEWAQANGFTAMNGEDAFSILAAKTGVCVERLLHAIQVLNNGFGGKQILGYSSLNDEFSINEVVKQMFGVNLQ
Chain of Procathepsin L (P07711 whole entry): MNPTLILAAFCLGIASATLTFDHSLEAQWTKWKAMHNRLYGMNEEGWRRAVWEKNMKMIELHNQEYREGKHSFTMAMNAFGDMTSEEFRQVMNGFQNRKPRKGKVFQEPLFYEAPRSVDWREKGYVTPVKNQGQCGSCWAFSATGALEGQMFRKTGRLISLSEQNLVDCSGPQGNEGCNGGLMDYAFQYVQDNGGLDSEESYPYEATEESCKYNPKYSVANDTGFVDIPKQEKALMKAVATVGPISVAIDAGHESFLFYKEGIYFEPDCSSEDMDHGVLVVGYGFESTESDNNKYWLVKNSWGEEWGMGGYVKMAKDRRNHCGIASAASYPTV

With `CCC(CC)COC(=O)[C@H](C)N[P@](=O)(OC[C@H]1O[C@@](c2noc(C(F)(F)F)n2)(c2ccc3c(N)ncnn23)[C@@H]2OC(C)(C)O[C@@H]21)Oc1ccccc1`, the IC50 (in general, the concentration at which inhibition is half-maximal) in test [1] worked out at 19.3 µM. As to `CCOC(=O)/C=C/[C@H](C[C@@H]1CCNC1=O)NC(=O)[C@H](Cc1ccccc1)NC(=O)[C@@H](N)Cc1ccccc1`, the IC50 in test [2] came out at 8.2 nM; in [3] it was 60 nM. `C=C1C(=O)[C@@]23C(=O)[C@@H](O)[C@@H]4C(C)(C)C[C@@H]5C(=O)OCC54[C@@H]2CC[C@@H]1[C@H]3OC(=O)C1Cc2ccccc2C1` (stereo partly specified): the EC50 – broadly, the concentration giving half of the maximal effect – in [4] came out at 19 nM. Take `CO[C@@H]1C[C@H](O[C@H]2C[C@](C)(CO)[C@@H]3CC[C@@]4(C)[C@@H]5CC[C@@H]6[C@H](CC(=O)[C@]7(C)C8=COC(N[C@H](C)C(C)C)=N[C@]8(C)[C@@H](O)[C@@H]8O[C@@]687)[C@@]5(C)CC[C@@H]4[C@@]3(C)[C@@H]2O)O[C@H](C)[C@H]1O`: the figures for the IC50 in test [5] and in test [6] were 74 nM and 6.6 nM, respectively. As for `CCCCC/C=C\C/C=C\CCCCCCCCOC(=O)[C@H](C)NP(=O)(OC[C@H]1O[C@@](C#N)(c2ccc3c(N)ncnn23)[C@H](O)[C@@H]1O)Oc1ccccc1` (stereo partly specified), the response in test [7] was half-maximal at 440 nM (EC50). Regarding `CCCCCCCCCC[C@@H]1CCC[C@]2(C=C(CO)[C@H]3CC(=O)C(C)=C[C@H]3O2)O1`, the EC50 is 160 nM in test [8] and 100 nM in test [9]. As for `C=C1NC(=O)[C@]2(C)CSC(=N2)c2csc(n2)[C@]2(C)CSC(=N2)[C@@H]([C@@H](C)CC)NC(=O)[C@@H](C)NC(=O)/C(=C\C(C)C)COC(=O)c2csc(n2)[C@H](C(C)C)N(C)C(=O)[C@H](COC)NC1=O`, the IC50 in test [10] was 560 nM; in test [6], 2390 nM.
